Test results taken from patent publication US5817332A, “Transdermal drug delivery system” (priority 1994, dated 1998).
≈ marks a conversion by molar mass, not a printed value. Read-outs that look alike come from different tables or passages of the source.

Legend:
[1] = as pH is increased; cited from earlier work
[2] = Phase-solubility of dexmedetomidine in aqueous 2-HP-β-CD solutions (phosphate buffers, 32 °C); assay type: physicochemical; conditions: for solubility at 240 h: phosphate buffer with 2-hp-β-cd, 32° C., read-out: DEX solubility
Experimental: The excess amount of the drug was added to pH 6.0, 7.0 and 8.0 phosphate buffers (142 mM) and the pHs of the suspensions were readjusted with 0.2M NaOH. The suspensions were shaken at 32° C. in a water bath for 10 days. After equilibration, the saturated solutions of DEX were filtered, diluted and the concentrations of DEX were analyzed by RP-HPLC at 210 nm.

[3] = In vitro release of DEX from silicone depot patches in diffusion cells; assay type: physicochemical; conditions: trisodium phosphate in device core
Experimental: The effect of cyclodextrin on the release rate of DEX was determined using reservoir-type silicone depot patches. Typical composition of the reservoir containing the drug and CD in molar ratio 1:1 was:
______________________________________
DEX HCl 200 μg (170 μg DEX base)
Tris-buffer (TRIS), trisodium phosphate (TP), disodium phosphate (DP), sodium phosphate (MP) or the mixture of disodium and sodium phosphates (50/50) (MP/DP) were used to buffer the devices. 2-HP-β-CD was added to the device in three different ways:
1) without precomplexation with DEX
2) using an inclusion complex of DEX and CD prepared by grinding
3) using an inclusion complex of DEX and CD prepared by spray-drying
In some patches the amount of pH-adjusting agent (DP) was decreased from 1600 μg to 200 μg or 2-HP-γ-CD was used instead of β-derivative.
Silicone membranes for the devices were made of MDX-4-4210 medical grade elastomer (Dow Corning, Midland, […].) by mixing 10% (w/w) MDX-4240 curing agent with the elastomer. […]
In vitro release of DEX from the devices was determined in diffusion cells at 34 ±1° C. […] At predetermined times, samples of 250 μl were withdrawn, replaced by fresh buffer solution, and the concentration of DEX in the samples was analyzed by RP-HPLC. After each release experiment pH in the devices was measured with a microelectrode.

SMILES: Cc1cccc([C@H](C)c2cnc[nH]2)c1C [DEX, dexmedetomidine]
- aqueous solubility (in words) [1]: drops dramatically
- influence of 2-HP-β-CD on solubility of DEX (in words) ([2]; pH 6.0, 7.0 and 8.0): the greatest as the pH of the solutions was highest
- improvement of the solubility of DEX by addition of 50% (m/V) 2-HP-β-CD ([2]; pH 6.0, 7.0 and 8.0 buffers): 19-99 times
- solubility at 240 h ([2]; pH 6, pH 6, 2-HP-β-CD 5 % (m/V) (35 mM)): 7060 µg/mL (≈ 35.3 mM)
- solubility at 240 h ([2]; pH 6, pH 6, 2-HP-β-CD 10 % (m/V) (70 mM)): 10000 µg/mL (≈ 50 mM)
- solubility at 240 h ([2]; pH 6, pH 6, 2-HP-β-CD 15 % (m/V) (105 mM)): 12800 µg/mL (≈ 63.9 mM)
- solubility at 240 h ([2]; pH 6, pH 6, 2-HP-β-CD 30 % (m/V) (209 mM)): 20900 µg/mL (≈ 105 mM)
- solubility at 240 h ([2]; pH 6, pH 6, 2-HP-β-CD 50 % (m/V) (349 mM)): 36800 µg/mL (≈ 184 mM)
- solubility at 240 h ([2]; pH 7, pH 7, 2-HP-β-CD 5 % (m/V) (35 mM)): 1600 µg/mL (≈ 7.99 mM)
- solubility at 240 h ([2]; pH 7, pH 7, 2-HP-β-CD 10 % (m/V) (70 mM)): 3040 µg/mL (≈ 15.2 mM)
- solubility at 240 h ([2]; pH 7, pH 7, 2-HP-β-CD 15 % (m/V) (105 mM)): 4910 µg/mL (≈ 24.5 mM)
- solubility at 240 h ([2]; pH 7, pH 7, 2-HP-β-CD 30 % (m/V) (209 mM)): 9330 µg/mL (≈ 46.6 mM)
- solubility at 240 h ([2]; pH 7, pH 7, 2-HP-β-CD 50 % (m/V) (349 mM)): 12800 µg/mL (≈ 64.1 mM)
- solubility at 240 h ([2]; pH 8, pH 8, 2-HP-β-CD 5 % (m/V) (35 mM)): 1230 µg/mL (≈ 6.15 mM)
- solubility at 240 h ([2]; pH 8, pH 8, 2-HP-β-CD 10 % (m/V) (70 mM)): 2260 µg/mL (≈ 11.3 mM)
- solubility at 240 h ([2]; pH 8, pH 8, 2-HP-β-CD 15 % (m/V) (105 mM)): 3770 µg/mL (≈ 18.8 mM)
- solubility at 240 h ([2]; pH 8, pH 8, 2-HP-β-CD 30 % (m/V) (209 mM)): 7200 µg/mL (≈ 35.9 mM)
- solubility at 240 h ([2]; pH 8, pH 8, 2-HP-β-CD 50 % (m/V) (349 mM)): 13300 µg/mL (≈ 66.2 mM)
- increase of DEX release rate by trisodium phosphate [3]: over 180 times
